Assays:
RANTES [1] = assay: RSV-induced RANTES secretion in A549 cells (ELISA); format: cell-based, human; details: for RSV-induced RANTES secretion: concentration not given, data not shown; for RSV-induced RANTES production: A549 cells, 24 hours, ELISA
Experimental: (§1) Cell culture and infection of epithelial cells with RSV. A549, human alveolar type II-like epithelial cells (ATCC, Manassas, Va.), were maintained in F12K medium containing 10% (v/v) fetal bovine serum (FBS), 10 mM glutamine, 100 IU/ml penicillin and 100 μg/ml streptomycin. Small alveolar epithelial cells (SAE) were obtained from Clonetics (San Diego, Calif.) and grown according to the company instructions. Cell monolayers were infected with RSV at multiplicity of infection (MOI) of 1 (unless otherwise stated), as described (17). An equivalent amount of a 20% sucrose solution was added to uninfected A549 cells, as a control. For the antioxidant experiments, cells were pretreated with the antioxidants for one hour and then infected in the presence of the antioxidants. Since BHA was diluted in ethanol, equal amounts of ethanol were added to untreated cells, as a control. Total number of cells, cell viability and viral replication, following antioxidant treatment, were measured by trypan blue exclusion and by plaque assay, respectively. RANTES ELISA. Immunoreactive RANTES was quantitated by a double antibody ELISA kit (DuoSet, R&D Systems, Minneapolis, Minn.) following the manufacturer's protocol.

NOS-2 = details: retinal epithelial cells, LPS/Interferon-γ; Faure et al. (40); cited from earlier work
RANTES [2] = assay: RSV-induced RANTES secretion in SAE cells (ELISA); format: cell-based, human; details: 20 mM, 24 hours, ELISA
Experimental: as §1

STAT = assay: RSV-induced STAT activation in alveolar epithelial cells; format: cell-based

With `COC(=O)[C@@H](N)CCCNC(=N)N[N+](=O)[O-]` [L-NAME] the “RSV-induced RANTES secretion” value (RANTES [1]) was “no changes”.

With `CNC(=N)NCCC[C@H](N)C(=O)O` [L-NMMA] the “RSV-induced RANTES secretion” value (RANTES [1]) was “no changes”.

For `S=C(S)N1CCCC1` [PDTC], the NOS-2 induction (NOS-2) is given as “able to inhibit”.

In the case of `C[S+](C)[O-]` [DMSO, dimethylsulphoxide], the “RSV-induced RANTES production” value (RANTES [1]; 2% (v/v)) is reported as “significantly block”.

For `CN(C)C(=S)N(C)C` [TMTU, tetramethyl thiourea, reference compound], the “RSV-induced RANTES production” value (RANTES [1]; 20 mM) was “significantly block” and the “RSV-induced RANTES production” value (RANTES [2]) was “significantly reduced”.

For `CC(=O)N[C@@H](CS)C(=O)O` [NAC, N-acetyl cystein, reference compound], the “RSV-induced RANTES production” value (RANTES [1]; 20 mM) was “significantly block” and the “RSV-induced RANTES production” value (RANTES [2]) was “significantly reduced”.

For `c1ccc2c(c1)[I+]c1ccccc1-2` [DPI], the “STAT activation following RSV infection” value (STAT) was “greatly reduces (or abolishes)”.

Source: patent US6699459B2, “Methods of treating lung inflammation” (The Board of Regents of the University of Texas System, priority 2001, dated 2004)
